Consider three compounds from publication PMC11481577, “Allosteric coupling of substrate binding and proton translocation in MmpL3 transporter from Mycobacterium tuberculosis” (mBio, 2024).

The target in experiment [1] is T1, MmpL3ΔC (Mycobacterium tuberculosis, UniProt P9WJV5). The experiment is classed as biochemical.
The target of experiment [2] is T2, MmpL3ΔC D58A (Mycobacterium tuberculosis, UniProt P9WJV5, D58A). The experiment is classed as biochemical.
The target in experiment [3] is T2, MmpL3ΔC D58A. In kind it is biochemical. The source holds these as a separate data set.
The target in experiment [4] is T3, MmpL3ΔC D139A (Mycobacterium tuberculosis, UniProt P9WJV5, D139A). The experiment is classed as biochemical.
Experiment [5] concerns the target T1, MmpL3ΔC. In kind it is biochemical. The source holds these as a separate data set.
Experiment [6] addresses T4, MmpL3ΔC S66A (Mycobacterium tuberculosis, UniProt P9WJV5, S66A). In kind it is biochemical.
Experiment [7] deals with T4, MmpL3ΔC S66A. In kind it is biochemical. This is another data set of the same source.
Experiment [8] deals with T1, MmpL3ΔC. The experiment is classed as biochemical. This is another data set of the same source.
The next experiment has as its target MmpL3ΔC H68A (Mycobacterium tuberculosis, UniProt P9WJV5, H68A). The experiment is classed as biochemical.
The test system of experiment [9] is MsmgΔmmpL3/pMVGH1-mmpL3tb (D58A). The experiment is classed as cell-based. The conditions noted are these: disc with 5 µg, 7H11-ADC agar, 4 days at 37°C.
The target of experiment [10] is T3, MmpL3ΔC D139A. In kind it is biochemical. The source holds these as a separate data set.

`OC[C@H]1O[C@H](O[C@H]2O[C@H](CO)[C@@H](O)[C@H](O)[C@H]2O)[C@H](O)[C@@H](O)[C@@H]1O` [trehalose]: the “Effect on H+ transfer activity (in words)” value at MmpL3ΔC [1] and at MmpL3ΔC D58A [3] was “weakly” in each case. For the same compound, the “Rate of fluorescence change (lipid transport activity)” value (from here on “Rate of fluorescence change”) is 7.22 RU/s/µM protein on MmpL3ΔC D58A [2]; 18.84 RU/s/µM protein on MmpL3ΔC D139A [4]; 1.20 RU/s/µM protein at MmpL3ΔC S66A [6]; 2.96 RU/s/µM protein at MmpL3ΔC [8]; 0.37 RU/s/µM protein on MmpL3ΔC H68A. In addition, on MmpL3ΔC [5], the “Effect on asymmetry of NBD-PE lipid distribution in proteoliposomes (flippase activity)” value (from here on “Effect on asymmetry”) was “unaffected”. Besides, the “Effect on remaining lipid transfer activity (in words)” value on MmpL3ΔC S66A [6] was “inhibited”. Besides, at MmpL3ΔC S66A [7], the “Stimulation of the variant by ligand (in words)” value is reported as “no significant stimulation”.

As to `CC(C)=CCC/C(C)=C/CNCCNC1C2CC3CC(C2)CC1C3` (centres unmarked) [SQ109], the “Rate of fluorescence change” value was 10.7 RU/s/µM protein at MmpL3ΔC D58A [2]; 2.52 RU/s/µM protein on MmpL3ΔC D139A [4]; -0.15 RU/s/µM protein on MmpL3ΔC S66A [6]; 2.04 RU/s/µM protein at MmpL3ΔC [8]; -0.12 RU/s/µM protein on MmpL3ΔC H68A. Further, at MmpL3ΔC [5], the “Effect on asymmetry” value is “unaffected”. The “Susceptibility to growth inhibition (zone of inhibition) compared with cells producing WT Mtb MmpL3” value in experiment [9] is given as “less susceptible”. Further, the “Effect on remaining lipid transfer activity (in words)” value on MmpL3ΔC S66A [6] is “inhibited”.

In the case of `CCCCCCCCCCCCCCCC(=O)OC[C@H]1O[C@H](O[C@H]2O[C@H](CO)[C@@H](O)[C@H](O)[C@H]2O)[C@H](O)[C@@H](O)[C@@H]1O` [Tre-C16], the “Effect on H+ transfer activity (in words)” value at MmpL3ΔC [1] is on record as “strongly stimulated”; on MmpL3ΔC D58A [3], “stimulated”; at MmpL3ΔC D139A [10], “stimulated by Tre-C16 even more strongly than the parent protein”. Moreover, the “Rate of fluorescence change” value was 11.53 RU/s/µM protein on MmpL3ΔC D58A [2]; 13.43 RU/s/µM protein on MmpL3ΔC D139A [4]; -0.02 RU/s/µM protein on MmpL3ΔC S66A [6]; 1.32 RU/s/µM protein on MmpL3ΔC [8]; -0.62 RU/s/µM protein on MmpL3ΔC H68A. In addition, the “Effect on asymmetry” value on MmpL3ΔC [5] is “unaffected”. The “Effect on remaining lipid transfer activity (in words)” value at MmpL3ΔC S66A [6] is given as “inhibited”. Further, the “Stimulation of the variant by ligand (in words)” value on MmpL3ΔC S66A [7] is given as “no significant stimulation”.
